Each structure is given as a SMILES string. Read-outs that look alike come from different tables or passages of the source. Where a SMILES comes first, the peptide text is derived from it. Bridges are numbered along the chain shown (N, C = ends). [ ]: non-standard residue; d: D form. Pip = O=C(O)[C@@H]1CCCCN1

A short description of data set [1]: 2D NMR structural score versus reference peptide. As to conditions: reference IGE063. Set-up: key to Struct. Score: +++ indicates the peptide is structured similarly to IGE063 (SEQ ID NO:49); + indicates the peptide is structured similarly to IGE063 (SEQ ID NO:49), but is less stable; −/+ indicates the peptide has some elements of stable structure, but the conformation differs from the reference structure (e.g., a different turn type is evident); − indicates the peptide is predominantly unstructured in aqueous solution. The class given is physicochemical. How it is done: Peptides were evaluated by 2D NMR spectroscopy to assess the effect of substitutions on the three-dimensional structure of the peptide analog. All peptides with a structural score indicated in Table 5 were analyzed by 2D NMR spectroscopy; backbone ^1H resonances were assigned and ^3JHN-Hα coupling constants were measured and compared to the reference peptide (IGE063, SEQ ID NO:49; see Example 5). Peptides are defined to be of similar structure to the reference peptide provided chemical shifts, coupling constants, and NOEs are consistent with that structure.
A structural score was assigned to peptides analyzed by 2D NMR spectroscopy. For each of these peptides, backbone ^1H resonances have been assigned, and the ^3JHN-Ha coupling constants have been measured and compared to the reference peptide (i.e., IGE134 (SEQ ID NOS:155, 171)). Peptides are defined to be of similar structure to the reference peptide provided. chemical shifts, coupling constants, and NOEs are consistent with that structure.

The target in data set [2] is T1, alpha subunit of the human FcεRI receptor (Homo sapiens, UniProt P12319).
T1 construct: expressed in transfected cells; host or cells: Chinese hamster ovary (CHO FcεRI+) cells
T1 sequence (P12319 26-257): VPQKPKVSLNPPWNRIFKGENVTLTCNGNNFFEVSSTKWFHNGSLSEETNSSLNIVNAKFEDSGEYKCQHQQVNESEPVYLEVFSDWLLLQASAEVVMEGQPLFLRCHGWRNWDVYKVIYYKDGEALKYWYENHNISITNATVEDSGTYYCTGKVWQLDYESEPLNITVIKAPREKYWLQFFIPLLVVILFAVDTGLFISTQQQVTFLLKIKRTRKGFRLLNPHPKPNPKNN
The data set can be described thus: cell-based 125I-IgE binding inhibition assay on CHO FcεRI+ cells. As to conditions: for fold difference in activity relative to comparator peptide: comparator (parent/control peptide) as named in the sentence. On the procedure:
. The following day the cells were rinsed three times with PBS and then once with F12/DMEM. Peptide stocks were reconstituted in 100 mM Hepes buffered water, pH 7.2, at a concentration of 5 mg/mL. Working concentrations of the peptide were diluted in assay buffer (see below). 75 ul, of a desired concentration of peptide was added to the top row of a separate 96 well microtiter plate and serially diluted 1:3 in 50 uL of the assay buffer (F12/DMEM, 1% BSA, 0.05% NaN3 and […] Hepes pH 7.2). Starting concentrations ranged from 50-500 uM. Next, 50 uL of the diluted peptide was transferred to the 96 microtiter well plate containing a monolayer of CHO FcεRI+ cells. After a 1 hour incubation at room temperature, 50 uL of ^125I-IgE (1.5 nM) was added to each well and incubated for an additional 45-60 minutes at 4° C. followed by 5 washes with 200 uL of assay buffer. Cells were solubilized with 200 uL of 1 N NaOH and transferred to a 96 microtiter tube for counting in a gamma counter to determine counts bound. The data were plotted using KaleidaGraph 3.0 and fitted using 4-parameter fits. IC50 values were determined for each peptide.
Six peptides based on selected clones from library #516 were synthesized and assayed for the ability to inhibit the binding of ^125I-IgE to a Chinese hamster ovary cell line expressing the alpha subunit of the IgE high affinity receptor, FcεRI. The peptides were synthesized as nine residue monomers and oxidized to allow the formation of a disulfide bridge resulting in a cyclic peptide. The size of each peptide was confirmed by mass spectrometry.

Setting [3] is: inhibition of labeled IgE-binding to CHO FcεRI+ cells, read-out: Mean IC50(uM) ± S.D.

Consider `CSCC[C@H](NC(=O)[C@@H]1CSSC[C@H](NC(=O)[C@H](CCCNC(=N)N)NC(=O)[C@@H]2CCCN2C(=O)[C@H](CC(C)C)NC(=O)[C@H](CC(N)=O)NC(C)=O)C(=O)N[C@@H]([C@@H](C)O)C(=O)N[C@@H](CCC(=O)O)C(=O)NCC(=O)N2CCC[C@H]2C(=O)N[C@@H](CCCCN)C(=O)NCC(=O)N[C@@H](Cc2c[nH]c3ccccc23)C(=O)N[C@@H](C(C)C)C(=O)N1)C(=O)N[C@@H](C)C(=O)N[C@@H](CC(=O)O)C(=O)N[C@@H](CC(=O)O)C(N)=O` [IGE032, Ac-NLPRCTEGPKGWVCMADD-nh2] (Ac-NLPRCTEGPKGWVCMADD-NH2; disulfide 5-14), for which, in data set [1], the “Struct. Score” value is recorded as “+++”. As to `CSCC[C@H](NC(=O)[C@@H]1CSSC[C@H](NC(=O)[C@H](CCCNC(=N)N)NC(=O)[C@@H]2CCCN2C(=O)[C@H](CC(C)C)NC(=O)[C@H](CC(N)=O)NC(C)=O)C(=O)N[C@@H]([C@@H](C)O)C(=O)N[C@@H](C)C(=O)NCC(=O)N2CCC[C@H]2C(=O)N[C@@H](Cc2c[nH]c3ccccc23)C(=O)NCC(=O)N[C@@H](Cc2c[nH]c3ccccc23)C(=O)N[C@@H](C(C)C)C(=O)N1)C(=O)N[C@@H](C)C(=O)N[C@@H](C)C(=O)N[C@@H](CC(=O)O)C(N)=O` [IGE059, AC-NLPRCTAGPWGWVCMAAD-nh2] (Ac-NLPRCTAGPWGWVCMAAD-NH2; disulfide 5-14), the “fold reduction in inhibition/binding” value in data set [2] (truncations and alanine substitutions of IGE063) amounted to 6 fold.

On to `CSCC[C@H](NC(=O)[C@@H]1CSSC[C@H](NC(=O)[C@@H]2CCCN2C(=O)[C@H](CC(C)C)NC(=O)[C@H](CC(N)=O)NC(C)=O)C(=O)N[C@@H]([C@@H](C)O)C(=O)N[C@@H](C)C(=O)NCC(=O)N2CCC[C@H]2C(=O)N[C@@H](Cc2c[nH]c3ccccc23)C(=O)NCC(=O)N[C@@H](Cc2c[nH]c3ccccc23)C(=O)N[C@@H](C(C)C)C(=O)N1)C(=O)N[C@@H](C)C(=O)N[C@@H](C)C(=O)N[C@@H](CC(=O)O)C(N)=O` [IGE060, Ac-NLPCTAGPWGWVCMAAD-nh2] (Ac-NLPCTAGPWGWVCMAAD-NH2; disulfide 4-13), for which the 50% inhibitory concentration (IC50) (as a rule, the point on the concentration scale where inhibition reaches its midpoint) in data set [2] (setting [3]) is above 500 µM. Consider `CSCC[C@H](NC(=O)[C@@H]1CSSC[C@H](NC(=O)[C@H](CCCNC(=N)N)NC(=O)[C@@H]2CCCN2C(=O)[C@H](CC(C)C)NC(=O)[C@@H](N)CC(N)=O)C(=O)N[C@@H]([C@@H](C)O)C(=O)N[C@@H](CCC(=O)O)C(=O)NCC(=O)N[C@@H](C)C(=O)N[C@@H](Cc2c[nH]c3ccccc23)C(=O)NCC(=O)N[C@@H](Cc2c[nH]c3ccccc23)C(=O)N[C@@H](C(C)C)C(=O)N1)C(=O)O` [IGE070, NLPRCTEGAWGWVCM] (H-NLPRCTEGAWGWVCM-OH; disulfide 5-14), for which the IC50 in data set [2] (setting [3]) is above 500 µM. On to `CSCC[C@H](NC(=O)[C@@H]1CSSC[C@H](NC(=O)[C@H](CCCNC(=N)N)NC(=O)[C@@H]2CCCN2C(=O)[C@H](CC(C)C)NC(=O)[C@@H](N)CC(N)=O)C(=O)N[C@@H]([C@@H](C)O)C(=O)N[C@@H](CCC(=O)O)C(=O)NCC(=O)N2CCC[C@@H]2C(=O)N[C@@H](Cc2c[nH]c3ccccc23)C(=O)NCC(=O)N[C@@H](Cc2c[nH]c3ccccc23)C(=O)N[C@@H](C(C)C)C(=O)N1)C(=O)O` [IGE071, NLPRCTEGpWGWVCM] (H-NLPRCTEG[dP]WGWVCM-OH; disulfide 5-14; N-terminus and C-terminus assumed), for which, in data set [1], the “Struct. Score” value is “−/+”. Same read-out and setting: the value for `CSCC[C@H](NC(=O)[C@@H]1CSSC[C@H](NC(=O)[C@H](CCCNC(=N)N)NC(=O)[C@@H]2CCCN2C(=O)[C@H](CC(C)C)NC(=O)[C@@H](N)CC(N)=O)C(=O)N[C@@H]([C@@H](C)O)C(=O)N[C@@H](CCC(=O)O)C(=O)NCC(=O)N2CCC[C@H]2C(=O)N[C@@H](C)C(=O)NCC(=O)N[C@@H](Cc2c[nH]c3ccccc23)C(=O)N[C@@H](C(C)C)C(=O)N1)C(=O)O` [IGE072, NLPRCTEGPAGWVCM] (H-NLPRCTEGPAGWVCM-OH; disulfide 5-14; N-terminus and C-terminus assumed) was “+++”. For the compound `CC[C@H](C)[C@H](NC(=O)[C@@H]1CSSC[C@H](NC(=O)[C@H](CCCNC(=N)N)NC(=O)[C@@H]2CCCN2C(=O)[C@H](CC(C)C)NC(=O)[C@@H](N)CC(N)=O)C(=O)N[C@@H]([C@@H](C)O)C(=O)N[C@@H](CCC(=O)O)C(=O)NCC(=O)N2CCC[C@H]2C(=O)N[C@@H](Cc2c[nH]c3ccccc23)C(=O)NCC(=O)N[C@@H](Cc2c[nH]c3ccccc23)C(=O)N[C@@H](C(C)C)C(=O)N1)C(=O)O` [IGE075, NLPRCTEGPWGWVCI] (H-NLPRCTEGPWGWVCI-OH; disulfide 5-14; N-terminus and C-terminus assumed), the IC50 in data set [2] (setting [3]) worked out at 1.4 ± 1.1 µM. Consider `CC[C@H](C)[C@H](N)C(=O)N[C@H](C(=O)N[C@H]1CSSC[C@@H](C(=O)N[C@@H](Cc2ccc(O)cc2)C(=O)N[C@H](C(N)=O)C(C)C)NC(=O)[C@H](C(C)C)NC(=O)[C@H](CC(=O)O)NC(=O)[C@@H]2CCCN2C(=O)[C@@H]2CSSC[C@H](NC(=O)[C@H](CC(C)C)NC(=O)[C@H](CCCNC(=N)N)NC(=O)[C@@H]3CCCN3C1=O)C(=O)N[C@@H](Cc1ccc(O)cc1)C(=O)N[C@@H](CCC(=O)O)C(=O)N[C@@H](CC(C)C)C(=O)N[C@@H](CC(=O)O)C(=O)N[C@@H](Cc1ccc(O)cc1)C(=O)N[C@@H](CCC(=O)O)C(=O)N[C@@H](CC(C)C)C(=O)N2)C(C)C` [IGE141] (H-IVCPRLCYELDYELCPDVCYV-NH2; disulfide 3-19, 7-15), for which the “fold difference in activity relative to comparator peptide” value in data set [2] came to 2 fold. In the case of `CC(C)C[C@@H]1NC(=O)[C@H](CCC(=O)O)NC(=O)[C@H](C)NC(=O)CNC(=O)CNC(=O)[C@H](Cc2ccccc2)NC(=O)[C@H](Cc2ccc(O)cc2)NC(=O)[C@@H]2CSSC[C@H](NC1=O)C(=O)N1CCC[C@H]1C(=O)N[C@@H](CC(=O)O)C(=O)N[C@@H](C(C)C)C(=O)N[C@H](C(=O)N[C@@H](Cc1ccc(O)cc1)C(=O)N[C@H](C(N)=O)C(C)C)CSSC[C@H](NC(=O)[C@H](CCC(N)=O)NC(=O)[C@@H](N)C(C)C)C(=O)N1CCCC[C@H]1C(=O)N[C@@H](Cc1c[nH]cn1)C(=O)N[C@@H](Cc1ccccc1)C(=O)N2` [IGE162-2, VQC(Pip)HFCYFGGAELCPDVCYV-nh2] (H-VQC[Pip]HFCYFGGAELCPDVCYV-NH2; disulfide 3-19, 7-15), the “fold difference in activity relative to comparator peptide” value in data set [2] was “little change in activity”.

For the compound `CC[C@H](C)[C@H](NC(=O)[C@@H]1CSSC[C@H](NC(=O)[C@H](CC(C)C)NC(=O)[C@@H](NC(=O)CNC(=O)[C@@H](N)CCSC)[C@@H](C)O)C(=O)N[C@@H](CC(C)C)C(=O)N[C@@H](CCC(=O)O)C(=O)NCC(=O)N2CCC[C@H]2C(=O)N[C@@H](CCC(=O)O)C(=O)NCC(=O)N[C@@H](Cc2c[nH]c3ccccc23)C(=O)N[C@@H](Cc2ccccc2)C(=O)N1)C(=O)N[C@@H](CCC(=O)O)C(=O)N[C@@H](CO)C(=O)N[C@@H](C)C(=O)O` [MGTLCLEGPEGWFCIESA] (H-MGTLCLEGPEGWFCIESA-OH; disulfide 5-14), the IC50 in data set [2] (IGE037: initially, read-out: IC50) is above 160 µM. `CSCC[C@H](NC(=O)[C@@H]1CSSC[C@H](NC(=O)[C@H](CCCNC(=N)N)NC(=O)[C@@H]2CCCN2C(=O)[C@H](CC(C)C)NC(=O)[C@@H](N)CC(N)=O)C(=O)N[C@@H]([C@@H](C)O)C(=O)N[C@@H](CCC(=O)O)C(=O)NCC(=O)N2CCC[C@H]2C(=O)N[C@@H](Cc2c[nH]c3ccccc23)C(=O)NCC(=O)N[C@@H](Cc2c[nH]c3ccccc23)C(=O)N[C@@H](C(C)C)C(=O)N1)C(=O)N[C@@H](C)C(=O)N[C@@H](C)C(=O)N[C@@H](CC(=O)O)C(=O)O` [NLPRCTEGPWGWVCMAAD] (H-NLPRCTEGPWGWVCMAAD-OH; disulfide 5-14; N-terminus and C-terminus assumed): in data set [2], the “fold improvement over the EIQECTEGPWGWFCVGSG peptide” value is 40 fold and the “fold improvement over the MGTLCLEGPEGWFCIESA peptide” value is recorded as “greater than 160 fold”.

The record behind these values is patent US20040086942A1, “Ige receptor antagonists” (priority 2003, published 2004).
